From US11000033B2, “Ketone or oxime compound, and herbicide” (NISSAN CHEMICAL CORPORATION, priority 2014, dated 2021)

Tests used:
[1] = test system: wheat; test: Test Example 5: effect on crop by foliage application, plastic box (symbol e); type: in vivo; conditions: 3 weeks after application; for e: wheat, effect on crop (criteria 0-5): 320 g/ha
In short: (§1)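 Greenhouse test at 25° C. to 30° C. Seeds of crops and weeds were spot-sown in boxes of sterilized diluvial soil under roughly 1.5 cm soil cover, then grown for foliage treatment.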

[2] = test system: Setaria viridis; test: Test Example 5: herbicidal effect by foliage application, plastic box (symbol G); type: in vivo; conditions: 3 weeks after application; for G: Setaria viridis, herbicidal effect (criteria 0-5): 320 g/ha
In short: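 Greenhouse foliar test: seedlings at 14 days, grown 25° C. to 30° C. in sterilized diluvial soil; compound applied as an aqueous dilution of an emulsion; response read 3 weeks after spraying.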

[3] = test system: rapeseed; test: Test Example 5: effect on crop by foliage application, plastic box (symbol g); type: in vivo; conditions: 3 weeks after application; for g: rapeseed, effect on crop (criteria 0-5): 320 g/ha
In short: as §1

[4] = test system: beet; test: Test Example 5: effect on crop by foliage application, plastic box (symbol f); type: in vivo; conditions: 3 weeks after application; for f: beet, effect on crop (criteria 0-5): 320 g/ha
In short: as §1

Row | melting point [°C] | Structure (SMILES) | e: wheat, effect on crop (criteria 0-5) [1] | G: Setaria viridis, herbicidal effect (criteria 0-5) [2] | g: rapeseed, effect on crop (criteria 0-5) [3] | f: beet, effect on crop (criteria 0-5) [4] | e: wheat, effect on crop grade ([1]; 102 g/ha) | f: beet, effect on crop grade ([4]; 102 g/ha) | G: Setaria viridis, herbicidal effect grade ([2]; 102 g/ha) | g: rapeseed, effect on crop grade ([3]; 102 g/ha)
1 | 115 to 118 | CON=C(CC1CC(O)=C(c2c(C)cc(C)cc2C)C1=O)C(F)(F)F (stereo not shown) [1-097] | 2 (Herbicidal ratio of 20% or higher and lower than 40%) | 5 (Herbicidal ratio of 90% or more (almost completely withered)) | 3 (Herbicidal ratio of 40% or higher and lower than 70%) |  |  |  |  | 
2 | 123 to 126 | CCCON=C(C)CC1CC(O)=C(c2c(C)cc(C)cc2C)C1=O (stereo not shown) [1-123] | 5 (Herbicidal ratio of 90% or more (almost completely withered)) | 5 (Herbicidal ratio of 90% or more (almost completely withered)) | 5 (Herbicidal ratio of 90% or more (almost completely withered)) | 0 (Herbicidal ratio of 5% or lower (almost no effect)) |  |  |  | 
3 | 183 to 185 | CC(=O)CC1CC(O)=C(c2c(C)cc(C)cc2C)C1=O (stereo not shown) [2-001, 3-hydroxy-2-mesityl-5-(2-oxopropyl)cyclopent-2-enone] |  |  |  |  | 0 (Herbicidal ratio of 5% or lower (almost no effect)) | 1 (Herbicidal ratio of 5% or higher and lower than 20%) | 4 (Herbicidal ratio of 70% or higher and lower than 90%) | 4 (Herbicidal ratio of 70% or higher and lower than 90%)
4 | 137 to 138 | Cc1cc(C)c(C2=C(O)CC(CC(=NOCC(F)(F)F)C3CC3)C2=O)c(C)c1 (stereo not shown) [1-131] | 2 (Herbicidal ratio of 20% or higher and lower than 40%) | 5 (Herbicidal ratio of 90% or more (almost completely withered)) | 5 (Herbicidal ratio of 90% or more (almost completely withered)) | 0 (Herbicidal ratio of 5% or lower (almost no effect)) |  |  |  | 
5 |  | CON=C(CC1CC(O)=C(c2c(C)cc(C)cc2C)C1=O)c1ccc(F)cc1 (stereo not shown) [1-133] | 0 (Herbicidal ratio of 5% or lower (almost no effect)) | 4 (Herbicidal ratio of 70% or higher and lower than 90%) | 4 (Herbicidal ratio of 70% or higher and lower than 90%) | 3 (Herbicidal ratio of 40% or higher and lower than 70%) |  |  |  | 
6 |  | CC(CC1CC(O)=C(c2c(C)cc(C)cc2C)C1=O)=NOCC1OCCO1 (stereo not shown) [1-111] | 5 (Herbicidal ratio of 90% or more (almost completely withered)) | 5 (Herbicidal ratio of 90% or more (almost completely withered)) | 5 (Herbicidal ratio of 90% or more (almost completely withered)) | 0 (Herbicidal ratio of 5% or lower (almost no effect)) |  |  |  | 
7 |  | CC(CC1CC(O)=C(c2c(C)cc(C)cc2C)C1=O)=NOCCS(C)(=O)=O (stereo not shown) [1-110] | 5 (Herbicidal ratio of 90% or more (almost completely withered)) | 5 (Herbicidal ratio of 90% or more (almost completely withered)) | 5 (Herbicidal ratio of 90% or more (almost completely withered)) | 0 (Herbicidal ratio of 5% or lower (almost no effect)) |  |  |  | 
